Results published in patent publication US12122782B2, “Crystalline forms of 8-(2-fluorobenzyl)-6-(3-(trifluoromethyl)-1H-1,2,4-triazol-5-yl)imidazo[1,2-a]pyrazine as sGC stimulators” (Tisento Therapeutics Inc., priority 2018, dated 2024).

Assay: Dynamic vapor sorption (DVS) adsorption/desorption
Assay type: physicochemical
Conditions: up to 95% RH; isothermal at 25° C.; water as solvent
Protocol: The Adsorption/Desorption determination was performed using a Q5000 V3.3 TGA-SA instrument. […] The ramp was isothermal at 25° C. Water was used as the solvent for all DVS analysis. The data was analyzed with the Universal Analysis 2000 software.

SMILES: Fc1ccccc1Cc1nc(-c2nc(C(F)(F)F)n[nH]2)cn2ccnc12 [Form A, 8-(2-fluorobenzyl)-6-(3-(trifluoromethyl)-1H-1,2,4-triazol-5-yl)imidazo[1,2-a]pyrazine]
- moisture picked up (DVS): less than 0.4%
